Source: US10759799B2, “Indazole containing macrocycles and therapeutic uses thereof” (Samumed, LLC, priority 2018, dated 2020)

Legend:
[1] = test system: primary human mesenchymal stem cells (hMSCs); assay: Chondrogenesis induction in hMSCs (nodule count, relative to TGF-β3); assay type: cell-based; conditions: 6 days; for Conc (nM) of 50% TGF-β3 activity / Max. Activity as % TGF-β3 activity: TGF-β3 10 ng/mL positive control; for Conc (nM) of Max. activity: chondrogenic nodules
Source text: Representative compounds were screened using primary human mesenchymal stem cells (hMSCs) to determine their ability to induce chondrogenesis (process by which cartilage is developed).
Human Mesenchymal Stem Cell Culture: Primary human mesenchymal stem cells (hMSCs) were purchased from Lonza (Walkersville, Md.) and expanded in Mesenchymal Stem Cell Growth Media (Lonza). Cells between passage 3 and 6 were used for the experiments.
Number of nodules in each well was normalized to the average of 3 DMSO treated wells on the same plate using Excel (Microsoft Inc.). The normalized averages (fold change over DMSO) of 3 replicate wells for each compound concentration were calculated. Due to solubility limitations of some of the compounds, curve fitting was incomplete leading to inaccurate EC50 determinations.
Using TGF-β3 as a positive control, the concentration of representative compounds required to induce equivalent levels of chondrogenesis is reported. In addition, the maximum activity of each compound and the respective dose that each compound reached maximum chondrogenesis activity is reported.

[2] = test system: primary human fibroblasts derived from IPF patients (LL29 cells); assay: Inhibition of TGF-β1 induced fibrosis (αSMA staining) in LL29 fibroblasts; assay type: cell-based; conditions: Fibroblast; for EC50: 96 h, LL29 cells, TGF-β1 20 ng/mL, 4 days, % αSMA positive cells
Procedure: Representative compounds were screened using primary human fibroblasts (derived from IPF patients) treated with TGF-β1 to determine their ability to inhibit the fibrotic process.
LL29 cells were plated at 1,500 cells/well in 70 μL/well F12 medium supplemented with 1% Fetal Bovine Serum. […] Wells treated with TGF-β1 and containing DMSO were used as positive control, and cells with only DMSO were negative control. […] Following incubation for 4 days, SYTOX green nucleic acid stain (Life Technologies [Thermo Fisher Scientific]) was added to the wells at a final concentration of 1 μM and incubated at room temperature for 30 min.

recombinant GSK3β kinase = recombinant GSK3β kinase (Homo sapiens (Human), UniProt P49841); assay: GSK3β kinase assay (Ser/Thr 09 peptide Z-lyte, FRET); assay type: biochemical; conditions: 46 μM ATP, one hour at room temperature, read-out: EC50 (μM) (IC50 per method)
Sequence of recombinant GSK3β kinase (P49841 whole entry): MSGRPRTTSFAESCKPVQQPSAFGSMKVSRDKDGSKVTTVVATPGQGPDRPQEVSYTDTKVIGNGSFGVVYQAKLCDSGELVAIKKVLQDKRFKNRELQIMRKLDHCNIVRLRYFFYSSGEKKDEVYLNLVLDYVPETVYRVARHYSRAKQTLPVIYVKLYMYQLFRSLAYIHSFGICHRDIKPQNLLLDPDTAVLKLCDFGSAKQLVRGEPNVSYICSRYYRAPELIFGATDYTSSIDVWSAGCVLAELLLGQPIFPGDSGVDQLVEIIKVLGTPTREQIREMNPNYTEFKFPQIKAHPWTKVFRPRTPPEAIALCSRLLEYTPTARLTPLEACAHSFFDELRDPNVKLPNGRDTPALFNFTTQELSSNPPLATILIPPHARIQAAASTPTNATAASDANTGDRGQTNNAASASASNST
Source text: Representative compounds were screened using the assay procedure for GSK3β kinase activity as described below.
The GSK3β kinase assay is run using the Ser/Thr 09 peptide Z-lyte assay kit according to manufacturer's instructions (Life Technologies—a Division of Thermo-Fisher). This is a non-radioactive assay using fluorescence resonance energy transfer (FRET) between coumarin and fluorescein to detect kinase activity which is represented as ratio of coumarin emission/fluorescein emission.
Briefly, recombinant GSK3β kinase, ATP and Ser/Thr peptide 09 are prepared in 1× Kinase buffer to final concentrations of 0.04 μg/mL, 46 μM, and 4 μM respectively. The mixture is allowed to incubate with the representative compounds for one hour at room temperature. All reactions were performed in duplicate. Unphosphorylated (“0% Control”) and phosphorylated (“100% control”) forms of […] serve as control reactions.
After incubation, diluted Development Buffer is added to the reaction and allowed to further incubate for one hour at room temperature. The plate is read at Ex 400 Em 455 to detect the coumarin signal and Ex 400 Em 520 to measure the signal (EnVision Multilabel Plate Reader, PerkinElmer).
The Emission ratio (Em) is calculated as a ratio of the coumarin (C) emission signal (at 445 nm)/Fluorescein (F) emission signal (at 520 nm). The percent phosphorylation is then calculated using the following formula: [1−((Em ratio×F100%)−C100%)/((C0%−C100%)+(Em ratio×(F100%−F0%)))].
Dose-response curves are generated and inhibitory concentration (IC50) values are calculated using non-linear regression curve fit in the Dotmatics' Studies Software (Bishops Stortford, UK).

[3] = test system: SW480 colon carcinoma cells; assay: Cell viability assay (CellTiter-Glo) in SW480 cells; assay type: cell-based; conditions: Homo sapiens; for EC50: 96 h, SW480 cell viability, four days, CellTiter-Glo; for inhibition at 10 µM: SW480, read-out: percent inhibition at 10 μM
Procedure: Representative compounds were screened using the assay procedure to assess the effect on cell viability as described below.
SW480 colon carcinoma cells were transduced with a lentiviral vector expressing luciferase with a human Sp5 promoter consisting of a sequence of eight TCF/LEF binding sites. SW480 cells stably expressing the Sp5-Luc reporter gene and a hygromycin resistance gene were selected by treatment with 150 μg/mL of hygromycin for 7 days. These stably transduced SW480 cells were expanded in cell culture and used for all further screening activities.
For the Cell Viability Assays, the cells were plated at 2,000 cells/well in 384-well plates with a DMEM medium containing 1% fetal bovine serum, and 1% Penicillin-Streptomycin and incubated for […] at 37° C. and 5% CO2. Eight replicates of DMSO-treated cells served as controls and cells treated with compound were performed in duplicate.
After incubation, 10 μL of CellTiter-Glo (Promega) was added to each well allowed to incubate for approximately 12 minutes. This reagent “results in cell lysis and generation of a luminescent signal proportional to the amount of ATP present. The amount of ATP is directly proportional to the number of cells present in culture, in agreement with previous reports. The CellTiter-Glo Assay generates a “glow-type” luminescent signal, produced by the luciferase reaction (Promega.com)”.

IC50 (recombinant GSK3β kinase) [µM]	EC50 [3] [nM]	Compound	Conc (nM) of 50% TGF-β3 activity [1] [nM]	Max. Activity as % TGF-β3 activity [1] [%]	Conc (nM) of Max. activity [1] [nM]	EC50 [2] [nM]	inhibition at 10 µM [3] [%]	inhibition at 10 µM ([2]; read-out: percent inhibition at 10 μM) [%]
0.001	2760	O=C1CCc2cccc(c2)-c2cncc3[nH]c(nc23)-c2n[nH]c3ccc(cc23)-c2cncc(c2)N1 [Compound 3, (Z)-2^3H,3^1H-5-Aza-2(7,2)-imidazo[4,5-c]pyridina-3 (3,5)-indazola-4(3,5)-pyridina-1(1,3)-benzenacyclooctaphan-6-one]	50	225	100	42	–	–
0.048	407	O=C1CCc2cccc(c2)-c2cccc3[nH]c(nc23)-c2n[nH]c3ncc(cc23)-c2cncc(c2)N1 [Compound 5, (Z)-2^1H,3^1H-8-Aza-2(5,3)-pyrazolo[3,4-b]pyridina-3(2,4)-benzo[d]imidazola-1(3,5)-pyridina-4(1,3)-benzenacyclooctaphan-7-one]	–	–	–	78	–	–
1.87	670	c1cc2cc(c1)-c1cccc3[nH]c(nc13)-c1n[nH]c3ccc(cc13)-c1cncc(c1)OCCC2 [Compound 57]	–	–	–	637	–	–
0.004	142	O=C1CCc2cccc(c2)-c2cccc3[nH]c(nc23)-c2n[nH]c3cnc(cc23)-c2cncc(c2)N1 [Compound 6, (Z)-2^1H,3^1H-8-Aza-2(5,3)-pyrazolo[3,4-c]pyridina-3(2,4)-benzo[d]imidazola-1(3,5)-pyridina-4(1,3)-benzenacyclooctaphan-7-one]	–	–	–	29	–	–
> 10	455	O=C1CCc2cccc(c2)-c2cccc3[nH]c(nc23)-c2n[nH]c3ccc(nc23)-c2cncc(c2)N1 [Compound 7, (Z)-2^1H,3^1H-8-Aza-2(5,3)-pyrazolo[4,3-b]pyridina-3 (2,4)-benzo[d]imidazola-1(3,5)-pyridina-4(1,3)-benzenacyclooctaphan-7-one]	–	–	–	560	–	–
0.01	118	Cn1ncc2c1CNCc1cccc(c1)-c1cccc3[nH]c(nc13)-c1n[nH]c3ccc-2cc13 [Compound 15, (Z)-Methyl-1^1H,2^1H,3^1H-6-aza-2(5,3),3 (2,4)-diindazola-1 (4,5)-pyrazola-4(1,3)-benzenacycloheptaphane]	–	–	–	87	–	–
0.004	26	c1cc2cc(c1)-c1cccc3[nH]c(nc13)-c1n[nH]c3ccc(cc13)-c1cncc(c1)CNC2 [Compound 10, (Z)-2^1H,3^1H-6-Aza-2(5,3),3(2,4)-diindazola-1(3,5)-pyridina-4(1,3)-benzenacycloheptaphane]	50	607	600	9980	–	–
0.001	> 10000	CN1CCCn2cc(nn2)-c2cncc3[nH]c(nc23)-c2n[nH]c3ccc(cc23)-c2cncc(c2)C1 [Compound 45, (1^4Z,2^1Z)-6-Methyl-1 ^1H,2^3H,3^1H-6-aza-2(7,2)-imidazo[4,5-c]pyridina-3(3,5)-indazola-4(3,5)-pyridina-1(4,1)-triazolacyclononaphane]	–	–	–	1540	44.1	–
0.002	515	CN1CCCCN(C)c2nccc3[nH]c(nc23)-c2n[nH]c3ccc(cc23)-c2cncc(c2)C1 [Compound 51, (Z)-5,10-Dimethyl-1H,2^1H-5,10-diaza-1(2,4)-imidazo[4,5-c]pyridina-2(3,5)-indazola-3(3,5)-pyridinacyclodecaphane]	5000	231	5000	203	–	–
0.001	415	O=C1COc2cccc(c2)-c2cncc3[nH]c(nc23)-c2n[nH]c3ccc(cc23)-c2cncc(c2)N1 [Compound 38, (Z)-2^3H,3^1H-8-Oxa-5-aza-2(7,2)-imidazo[4,5-c]pyridina-3(3,5)-indazola-4(3,5)-pyridina-1(1,3)-benzenacyclooctaphan-6-one]	100	185	100	38	–	–
0.011	14	CN1Cc2cncc(c2)-c2ccc3[nH]nc(c3c2)-c2nc3c(cccc3[nH]2)-c2cccc(c2)C1 [Compound 22, (Z)-6-Methyl-2^1H,3^1H-6-aza-2(5,3),3(2,4)-diindazola-1(3,5)-pyridina-4(1,3)-benzenacycloheptaphane]	50	440	600	35	–	–
0.088	> 10000	O=C1NC2CCC(CC2)NCc2cncc(c2)-c2ccc3[nH]nc(c3c2)-c2nc3c1cccc3[nH]2 [Compound 64, (6^1s,6^4s,Z)-1^1H,2^1H-5,7-diaza-1 (2,4),2(3,5)-dibenzo[d]imidazola-3(3,5)-pyridina-6(1,4)-cyclohexanacyclooctaphan-8-one]	–	–	–	10000	15.8	72
0.001	80	O=C1CCc2cccc(c2)-c2nccc3[nH]c(nc23)-c2n[nH]c3ccc(cc23)-c2cncc(c2)N1 [Compound 2, (Z)-2^1H,3^1H-5-Aza-2(4,2)-imidazo[4,5-c]pyridina-3 (3,5)-indazola-4(3,5)-pyridina-1(1,3)-benzenacyclooctaphan-6-one]	–	–	–	224	–	–
0.015	170	CN1Cc2cccc(c2)-c2cccc3[nH]c(nc23)-c2n[nH]c3ccc(cc23)-c2cnn(C)c2C1 [Compound 29]	–	–	–	77	–	–
0.001	49	c1cc2cc(c1)-c1cncc3[nH]c(nc13)-c1n[nH]c3ccc(cc13)-c1cncc(c1)CNC2 [Compound 8, (Z)-2^3H,3H-6-Aza-2(7,2)-imidazo[4,5-c]pyridina-3(3,5)-indazola-4(3,5)-pyridina-1(1,3)-benzenacycloheptaphane]	200	558	1700	19	–	–
0.007	94	O=C1CCc2cccc(c2)-c2cccc3[nH]c(nc23)-c2n[nH]c3ccc(cc23)-c2cncc(c2)N1 [Compound 1]	200	497	5000	24	–	–
